Data as given in patent US20200370087A1, “METHOD FOR DETERMINING MICROBIAL SUSCEPTIBILITY TO ANTIBIOTIC AGENTS” (Ascilion AB, priority 2017, published 2020).
≈ marks a conversion by molar mass, not a printed value.

Key:
[1] = tested on: Enterococcus faecalis (ATCC 29212); experiment: Glucose consumption susceptibility test, blood culture diluted in MHB with glucose (Example 1); assay type: cell-based; parameters: glucose concentration, t = 0 / glucose concentration, t = 60 / glucose concentration, t = 120 / glucose concentration, t = 180 / glucose concentration, t = 240 / dC/dT (rate of change in glucose concentration): unit not given here; conditions: E. faecalis; for glucose concentration, t = 0: 0 minutes; for glucose concentration, t = 60: 60 minutes; for glucose concentration, t = 120: 120 minutes; for glucose concentration, t = 180: 180 minutes; for glucose concentration, t = 240: 240 minutes
Experimental: (§1) Strains of Escherichia coli (ATCC 25922), Enterococcus faecalis (ATCC 29212) and Staphylococcus aureus (ATCC 29213) were inoculated in blood culture bottles (SVA, Uppsala, Sweden) and cultivated according to the manufacturer's instructions until positive.
(§2) Medium from each blood culture bottle was diluted 1:100 with cation adjusted Mueller-Hinton broth (SVA, Uppsala, Sweden) supplemented with glucose to a concentration of 1.0 mg/mL.
(§3) Glucose concentrations were measured at 0, 60, 120, 180, and 240 minutes using a WaveSense Jazz glucometer (AgaMatrix, Inc., Salem, N.H., USA) with accompanying test strips.
(§4) Susceptibility scores corresponding to MIC values were calculated as described above. A 80% threshold was applied, i.e. the lowest concentration of antibiotic that entailed a rate of change in glucose concentration that was equal to or less than 80% of the reference was selected as the Minimal Inhibitory Concentration. The rate of change was calculated between the measurements at 60 and 180 minutes.

[2] = tested on: Staphylococcus aureus (ATCC 29213); experiment: as above; assay type: cell-based; parameters: glucose concentration, t = 0 / glucose concentration, t = 60 / glucose concentration, t = 120 / glucose concentration, t = 180 / glucose concentration, t = 240 / dC/dT (rate of change in glucose concentration): unit not given here; conditions: for F = the rate of change in glucose concentration in relation to the reference / dC/dT (rate of change in glucose concentration) / glucose concentration, t = 0 / glucose concentration, t = 60 / glucose concentration, t = 120 / glucose concentration, t = 180 / glucose concentration, t = 240: S. aureus; for glucose concentration, t = 0: 0 minutes; for glucose concentration, t = 60: 60 minutes; for glucose concentration, t = 120: 120 minutes; for glucose concentration, t = 180: 180 minutes; for glucose concentration, t = 240: 240 minutes
Experimental: as §1, §2, §3, §4

## CO[C@@]1(NC(=O)Cc2cccs2)C(=O)N2C(C(=O)O)=C(COC(N)=O)CS[C@@H]21 [Cefoxitin, cefoxitin]
[1]; antibiotic 0.25 μg/mL
  F = the rate of change in glucose concentration in relation to the reference: 93%
  dC/dT (rate of change in glucose concentration): 34
  glucose concentration, t = 0: 151
  glucose concentration, t = 60: 155
  glucose concentration, t = 120: 138
  glucose concentration, t = 180: 88
  glucose concentration, t = 240: 34
[1]; antibiotic 0.5 μg/mL
  F = the rate of change in glucose concentration in relation to the reference: 88%
  dC/dT (rate of change in glucose concentration): 32
  glucose concentration, t = 0: 145
  glucose concentration, t = 60: 150
  glucose concentration, t = 120: 144
  glucose concentration, t = 180: 87
  glucose concentration, t = 240: 32
[1]; antibiotic 1 μg/mL
  F = the rate of change in glucose concentration in relation to the reference: 85%
  dC/dT (rate of change in glucose concentration): 31
  glucose concentration, t = 0: 148
  glucose concentration, t = 60: 159
  glucose concentration, t = 120: 142
  glucose concentration, t = 180: 98
  glucose concentration, t = 240: 31
[1]; antibiotic 2 μg/mL
  F = the rate of change in glucose concentration in relation to the reference: 99%
  dC/dT (rate of change in glucose concentration): 36
  glucose concentration, t = 0: 149
  glucose concentration, t = 60: 169
  glucose concentration, t = 120: 145
  glucose concentration, t = 180: 98
  glucose concentration, t = 240: 36
[1]; antibiotic 4 μg/mL
  F = the rate of change in glucose concentration in relation to the reference: 74%
  dC/dT (rate of change in glucose concentration): 27
  glucose concentration, t = 0: 150
  glucose concentration, t = 60: 159
  glucose concentration, t = 120: 146
  glucose concentration, t = 180: 106
  glucose concentration, t = 240: 27
[1]; antibiotic 8 μg/mL
  F = the rate of change in glucose concentration in relation to the reference: 63%
  dC/dT (rate of change in glucose concentration): 23
  glucose concentration, t = 0: 144
  glucose concentration, t = 60: 149
  glucose concentration, t = 120: 147
  glucose concentration, t = 180: 104
  glucose concentration, t = 240: 23
[1]; antibiotic 16 μg/mL
  F = the rate of change in glucose concentration in relation to the reference: 68%
  dC/dT (rate of change in glucose concentration): 25
  glucose concentration, t = 0: 148
  glucose concentration, t = 60: 154
  glucose concentration, t = 120: 148
  glucose concentration, t = 180: 105
  glucose concentration, t = 240: 25
[1]; antibiotic 32 μg/mL
  F = the rate of change in glucose concentration in relation to the reference: 74%
  dC/dT (rate of change in glucose concentration): 27
  glucose concentration, t = 0: 148
  glucose concentration, t = 60: 155
  glucose concentration, t = 120: 140
  glucose concentration, t = 180: 102
  glucose concentration, t = 240: 27
[1]; Enterococcus faecalis, ATCC29212, 80% threshold, disregarded as rate of decrease was higher at 32 μg/mL, read-out: MIC value initially obtained (disregarded)
  MIC: 4 µg/mL (≈ 9.36 µM)
[2]; antibiotic 0.25 μg/mL
  F = the rate of change in glucose concentration in relation to the reference: 91%
  dC/dT (rate of change in glucose concentration): 31
  glucose concentration, t = 0: 143
  glucose concentration, t = 60: 152
  glucose concentration, t = 120: 132
  glucose concentration, t = 180: 91
  glucose concentration, t = 240: 33
[2]; antibiotic 0.5 μg/mL
  F = the rate of change in glucose concentration in relation to the reference: 96%
  dC/dT (rate of change in glucose concentration): 32
  glucose concentration, t = 0: 144
  glucose concentration, t = 60: 155
  glucose concentration, t = 120: 130
  glucose concentration, t = 180: 91
  glucose concentration, t = 240: 32
[2]; antibiotic 1 μg/mL
  F = the rate of change in glucose concentration in relation to the reference: 82%
  dC/dT (rate of change in glucose concentration): 28
  glucose concentration, t = 0: 147
  glucose concentration, t = 60: 155
  glucose concentration, t = 120: 133
  glucose concentration, t = 180: 100
  glucose concentration, t = 240: 40
[2]; antibiotic 2 μg/mL
  F = the rate of change in glucose concentration in relation to the reference: 72%
  dC/dT (rate of change in glucose concentration): 24
  glucose concentration, t = 0: 141
  glucose concentration, t = 60: 146
  glucose concentration, t = 120: 143
  glucose concentration, t = 180: 98
  glucose concentration, t = 240: 61
[2]; antibiotic 4 μg/mL
  F = the rate of change in glucose concentration in relation to the reference: 16%
  dC/dT (rate of change in glucose concentration): 6
  glucose concentration, t = 0: 142
  glucose concentration, t = 60: 150
  glucose concentration, t = 120: 143
  glucose concentration, t = 180: 139
  glucose concentration, t = 240: 139
[2]; antibiotic 8 μg/mL
  F = the rate of change in glucose concentration in relation to the reference: 24%
  dC/dT (rate of change in glucose concentration): 8
  glucose concentration, t = 0: 136
  glucose concentration, t = 60: 157
  glucose concentration, t = 120: 160
  glucose concentration, t = 180: 141
  glucose concentration, t = 240: 149
[2]; antibiotic 16 μg/mL
  F = the rate of change in glucose concentration in relation to the reference: 22%
  dC/dT (rate of change in glucose concentration): 8
  glucose concentration, t = 0: 140
  glucose concentration, t = 60: 157
  glucose concentration, t = 120: 152
  glucose concentration, t = 180: 142
  glucose concentration, t = 240: 142
[2]; antibiotic 32 μg/mL
  F = the rate of change in glucose concentration in relation to the reference: 27%
  dC/dT (rate of change in glucose concentration): 9
  glucose concentration, t = 0: 145
  glucose concentration, t = 60: 154
  glucose concentration, t = 120: 145
  glucose concentration, t = 180: 136
  glucose concentration, t = 240: 139
[2]; Staphylococcus aureus, ATCC29213, S.aureus, 80% threshold of reference rate of change, 60 to 180 minutes, read-out: MIC, Measured
  MIC: 2 µg/mL (≈ 4.68 µM)
